Experimental data: US12679825B2, “Crystalline and amorphous forms of a δ-opioid modulator” (Trevena, Inc., priority 2020, dated 2026)
Converted amounts (≈) assume the structure as drawn. “Also recorded” adds a separate entry of the source.

Legend:
Type in all cases: physicochemical
[1] = Dynamic Vapour Sorption (DVS)
Description: The following results and observations were obtained from this experiment (see Table 4 for further details): • After anti-solvent addition to the solutions at 20° C., the experiment carried out using tBME as the initial solvent system had solid adhered to the vial walls. The experiments carried out using MEK and THF as the initial solvent systems were cloudy, with some oil/gum formation noted. • After temperature cycling overnight, all experiments formed slurries. […] (peak at 98° C.) during the first heat. A glass transition with a mid-point half-height of ca. 32° C. was observed during the first cool. […] The residual tBME could not be quantified, due to overlapping signals with the API. Residual heptane was observed, equal to 0.91% w/w, or 0.05 equivalents. • ^1H NMR spectroscopy of the crystalline Form I isolated from MEK:heptane 20:80 v/v % was consistent with the structure of the compound of Formula I free base. The residual MEK could not be quantified, due to overlapping signals with the API. Residual heptane was observed, equal to 0.51% w/w, or 0.02 equivalents. • ^1H NMR spectroscopy of the crystalline Form I isolated from THF:heptane 22:78 v/v % was consistent with the structure of the compound of Formula I free base. The residual THF could not be quantified, due to overlapping signals with the API.
Crystalline forms of the compound of Formula I, including the crystalline Form I, were analyzed using Dynamic Vapour Sorption (DVS). Approximately 10-15 mg of sample was placed into a mesh vapour sorption balance pan and loaded into a DVS Intrinsic dynamic vapour sorption balance by Surface Measurement Systems. The sample was subjected to a ramping profile from 40-90% relative humidity (RH) at 10% increments, maintaining the sample at each step until a stable weight had been achieved (dm/dt 0.004%, minimum step length 30 minutes, maximum step length 120 minutes) at 25° C. After completion of the sorption cycle, the sample was dried using the same procedure to 0% RH and then a second sorption cycle back to 40% RH was carried out. Two cycles were performed. The weight change during the sorption/desorption cycles were plotted, allowing the hygroscopic nature of the sample to be determined. XRPD analysis was then carried out on the residual solid.

[2] = 14-day stability testing (XRPD, HPLC, appearance); parameters: key to XRPD after storage: CRY: Crystalline; settings: 14 days; for Post-Storage Observations (appearance): input White solid (NE12); for 14-Day Stability, Solid Purity after storage: open vial, input 98.9% area
Description: Crystalline forms of the compound of Formula I, including the crystalline Form I, were analyzed regarding stability. Approximately 10 mg of free base Form I was subjected to 14-day stability testing under the following conditions to assess developability: • 40° C./75% RH (open vial); • Ambient light, temperature and humidity conditions (open vial).
After 2 weeks under the specified conditions, XRPD and HPLC analysis was carried out on the resultant solid material. The sample appearance was monitored over 14 days.

[3] = Aqueous solubility study (slurry in deionized water, HPLC); parameters: key to XRPD of residual solid, Wet / XRPD of residual solid, Dry: CRY: Crystalline
Description: The aqueous solubility of the crystalline Form I was assessed using the following procedure: • Approximately 10 mg of the dried material was slurried in deionized water (100 μL) at 20° C. with stirring. • Further aliquots of water (50 μL) were added until a mobile slurry was obtained. A total of 600 μL was used. • The slurry was stirred at 20° C. for 24 h then separated by centrifugation (0.22 μm nylon filter). • The residual solid was analyzed by XRPD and then dried under vacuum at ambient temperature (ca. 20° C.) for 72 h, prior to re-analysis by XRPD. The results are shown in FIG. 45. • The pH of the mother liquor was measured. • The mother liquors were analyzed by HPLC for purity and concentration.

[4] = Potentiometric (pH-metric) pKa; settings: pH 2.0-12.0, methanol-water co-solvent, Yasuda-Shedlovsky extrapolation
Description: Crystalline forms of the compound of Formula I, including the crystalline Form I, were analyzed using pKa and LogP. An automated titrator system with an incorporated UV-Vis spectrometer (SiriusT3™, Pion Inc.) was used to acquire the spectrometric and potentiometric data. The optical system consisted of a photodiode array detector with a deuterium lamp and a fiber optic dip probe.
The titrator module consisted of a temperature controller (by Peltier device with in-situ thermocouple), pH electrode, an overhead stirrer, and motorized dispensers for the automatic delivery of assay titrants and reagents via capillaries. The instrumentation was operated using SiriusT3Control software (V2.0). Data processing and generation of the reported pKa and logP values was carried out using SiriusT3Refine software (V2.0). The titrants used were 0.5 M hydrochloric acid and 0.5 M potassium hydroxide, standardized using potassium hydrogen phthalate. ACS or HPLC grade methanol cosolvent was used for pKa determination. […]
An additional potentiometric assay was carried out to confirm the pKa. […] The aqueous pKa was extrapolated from the apparent pKa measured in the presence of co-solvents, using the Yasuda-Shedlovsky extrapolation equation. […]

In the case of `COCCOc1cccc([C@@H]2CCN(CCn3cccc3)[C@H](C)[C@H]2COc2ccc3c(c2)C(=O)NC3)c1` [crystalline Form I, (−)-6-{[(trans, trans)-4-[3-(2-methoxyethoxy)phenyl]-2-methyl-1-[2-(1H-pyrrol-1-yl)ethyl]piperidin-3-yl]methoxy}-2,3-dihydro-1H-isoindol-1-one], the DVS mass uptake ([1]; 25° C./80% RH, material isolated from tBME:heptane 50:50 v/v %) is reported as “ca. 0.5 % w/w”, the “Water Uptake (DVS, 25° C.) At 25° C./80%, RH” value ([1]; 25° C./80% RH, tBME:Heptane 50:50) is reported as 0.5% and the “Post-DVS XRPD” value ([1]; form after DVS analysis) is reported as “retained; also recorded: Form I”. The “Hygroscopicity (DVS)” value ([1]; material isolated from tBME:heptane 50:50 v/v %) was “slightly hygroscopic”, the “Decrease in purity after storage (HPLC)” value ([2]; 40° C./75% RH and ambient conditions) was no more than 0.3 % area and the “14-Day Stability, form by XRPD” value ([2]; 40° C./75% RH) was “retained; also recorded: Form I”. For the same compound, the XRPD after storage ([2]; 40° C./75% RH) was “CRY”, the “Post-Storage Observations (appearance)” value ([2]; 40° C./75% RH) was “White solid (NE12)” and the “14-Day Stability, Solid Purity after storage” value ([2]; 40° C./75% RH) was 99.0 % area. For the same compound, the “14-Day Stability, Solid Purity after storage” value ([2]; Ambient light, temperature and humidity) was 98.6 % area, the “14-Day Stability, form by XRPD” value ([2]; Ambient) was “retained; also recorded: Form I” and the XRPD after storage ([2]; Ambient) was “CRY”. For the same compound, the “Post-Storage Observations (appearance)” value ([2]; Ambient) was “White solid (NE12)”, the “XRPD of residual solid, Dry” value ([3]; after slurrying in water and drying under vacuum 72 h) was “CRY” and the “XRPD of residual solid, Wet” value ([3]; after slurrying in water at 20° C. for 24 h) was “CRY”. For the same compound, the solubility at 24 h ([3]; thermodynamic from solid, deionized water, 20° C., slurry stirred 24 h, HPLC, mother liquor pH 6.84, read-out: Aqueous Solubility (solution concentration)) was 97 µg/mL (≈ 193 µM), the “Form after slurrying in water (XRPD)” value ([3]; water, 20° C., and after drying) was “retained” and the “Potentiometric (pH-metric) pKa” value [4] was “confirmed the spectrometric pKa”.
